In publication PMC12172596, “Unveiling New Triazoloquinoxaline‐Based PROTACs Designed for the Selective Degradation of the ncBAF Chromatin Remodeling Subunit BRD9” (Chemistry (Weinheim an Der Bergstrasse, Germany), 2025):

Columns and labels:
[1] = tested on: U937 cells; experiment: CCK8 viability assay in U937 cells; format: cell-based, human
Method: The AML U937 cell line (ATCC) was grown in Roswell Park Memorial Institute (RPMI) 1640 Medium with the addition of 10% fetal bovine serum (FBS), 1% L‐glutamine, and 1% antibiotics (100 U/mL penicillin, 100 µg/mL streptomycin, and 250 ng/mL amphotericin‐B). Cells have been authenticated by STR profiling.
CCK8 was purchased from Elabscience and used according to manufacturer instructions, briefly: 100 µL of cell suspension was added to each well using a 96‐well microplate. Cells were then incubated at 37 °C, in a 5% CO2 incubator for 24 hours. Compounds were added to the cells and incubated for an additional 48 hours at 37 °C. Next, 10 µL of CCK‐8 Buffer was added to each well, and cells were incubated again for 4 hours. Next, 450 nm absorbance was measured using a TECAN microplate reader.

[2] = Microsomal stability in human liver microsomes (HLMs); format: in vitro ADME; settings: LC-MS/MS analysis
Method: In our assay we followed the loss of the test compounds over time under CYP‐mediated metabolic pathways. The extent of hepatic metabolism allowed us the determination of different pharmacokinetic parameters such as in vitro t1/2, CLint, in vitro and CLint, in vivo. In vitro t1/2 and CLint, in vitro of test compounds after liver microsomes incubation were calculated according to “well‐stirred” model. In the “well‐stirred” model, the liver is represented by a single compartment, where the unbound concentration of a drug leaving the liver is in equilibrium with the intracellular unbound concentration in the hepatocytes.^[ [53] ^] Predicted CLint, invivo values were determined using human PBSF.^[ [54] ^]
The microsomal stability of compounds 2 and 9 was assessed according to the previously described protocol.^[ [73] ^] […] The supernatants were collected and analyzed by LC‐MS/MS. The extent of metabolism is quantified as a percentage of the parent compound turnover. […] In vitro half‐lives (t1/2) were calculated using the expression t1/2 = 0.693/b, where b is the slope found in the linear fit of the natural logarithm of the fraction remaining of the parent compound versus incubation time. Microsomal intrinsic clearance was calculated as CLint , in vitro = (1000) × (0.693/t1/2)/0.5. […]

[3] = biological target: T1, BRD9 (BD1) (Homo sapiens, UniProt Q9H8M2); experiment: AlphaScreen assay, BRD9 (BD1) Inhibitor Screening Assay Kit; format: binding
T1 construct: BSP‐32519
T1 sequence (Q9H8M2 136-240 limits assumed): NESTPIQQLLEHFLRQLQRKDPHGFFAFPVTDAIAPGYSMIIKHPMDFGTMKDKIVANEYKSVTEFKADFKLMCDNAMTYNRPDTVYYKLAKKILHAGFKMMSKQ
Method: The evaluation of the interaction between synthesized compounds and BRD9 was conducted using AlphaScreen Technology using an Enspire microplate analyzer (Perkin Elmer)^[ [70] ^] and the BRD9 (BD1) Inhibitor Screening Assay Kit (BSP‐32519) as reported by Colarusso et al.^[ [38], [39] ^] IC50 values were calculated by GraphPad Prism10 software.

With `CCCCc1nnc2c(Nc3cccc(NC(=O)CCCCCCOCCOCC(=O)N[C@H](C(=O)N4C[C@H](O)C[C@H]4C(=O)NCc4ccc(-c5scnc5C)cc4)C(C)(C)C)c3)nc3ccccc3n12` [compound 9] the U937 cell viability ([1]; CCK8, 48 hours treatment) was “significantly impaired leukemic cell viability”, the “ability to reduce leukemic cell viability and AML cell proliferation compared with dBRD9” value ([1]; U937 cells, versus reference dBRD9) was “superior ability to reduce leukemic cell viability and AML cell proliferation” and the “primary metabolites after incubation with HLMs” value [2] was “dealkylation reactions”. The IC50 ([3]; AlphaScreen, read-out: IC50, BRD9 binding) was 660 ± 40 nM and the “fold higher binding affinity to BRD9 compared to degrader 2” value ([3]; compared to compound 2) was 4.5 fold.
